Among the data in patent US20250114338A1, “TETRAHYDRO-PYRIDO[3,4-b]INDOLE ESTROGEN RECEPTOR MODULATORS AND USES THEREOF” (Genentech, Inc., priority 2014, published 2025) are EC50 values, retold here.

This assay concerns ER-alpha MCF7. Briefly: ER-alpha MCF7 HCS EC50; stated as measured by in vitro cell proliferation assays of Examples 902 and 903. As to conditions: Homo sapiens, MCF7, MCF7 cells; Table 2. It counts as cell-based. Put shortly: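 MCF7 cells seeded 1000-2000 cells/well for 16 h, then treated with nine-point 1:2 DMSO dilution series in quadruplicate at 37 °C, 5% CO2 for 4 days. Viable cells quantified by CellTiter-Glo ATP luminescence; EC50 calculated. Controls: fulvestrant at final 100 nM, DMSO 0.2% v/v.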
As to `C[C@H]1Cc2c([nH]c3ccc(F)cc23)[C@H](c2c(F)cc(OCCN3CC(CF)C3)cc2F)N1CC(F)F` [Example 384, (1S,3S)-1-(2,6-difluoro-4-(2-(3-(fluoromethyl)azetidin-1-yl)ethoxy)phenyl)-2-(2,2-difluoroethyl)-6-fluoro-3-methyl-2,3,4,9-tetrahydro-1H-pyrido[3,4-b]indole], the EC50 came out at 29 nM.
The same measure for `C[C@@H]1Cc2c([nH]c3c(F)cccc23)[C@@H](c2c(F)cc(OCCN3CC(CF)C3)cc2F)N1CC(C)(C)F` [Example 260, (1R,3R)-1-(2,6-difluoro-4-(2-(3-(fluoromethyl)azetidin-1-yl)ethoxy)phenyl)-8-fluoro-2-(2-fluoro-2-methylpropyl)-3-methyl-2,3,4,9-tetrahydro-1H-pyrido[3,4-b]indole]: 0.881 nM; for `C[C@@H]1Cc2c([nH]c3ccccc23)[C@@H](c2c(F)cc(OCCN3CC(CF)C3)cc2F)N1CC(C)(F)F` [Example 379, (1R,3R)-1-(2,6-difluoro-4-(2-(3-(fluoromethyl)azetidin-1-yl)ethoxy)phenyl)-2-(2,2-difluoropropyl)-3-methyl-2,3,4,9-tetrahydro-1H-pyrido[3,4-b]indole]: 0.28 nM; for `C[C@@H]1Cc2c([nH]c3ccccc23)[C@@H](c2ccc(OC3CN(CCCF)C3)c(Cl)c2)N1CC(C)(C)F` [Example 266, (1R,3R)-1-[3-chloro-4-[1-(3-fluoropropyl)azetidin-3-yl]oxy-phenyl]-2-(2-fluoro-2-methyl-propyl)-3-methyl-1,3,4,9-tetrahydropyrido[3,4-b]indole]: 10 nM.
As for `C[C@@H]1Cc2c([nH]c3cccc(F)c23)[C@@H](c2c(F)cc(NC3CN(CCCF)C3)cc2F)N1C[C@](C)(F)CO` [Example 398, (S)-3-((1R,3R)-1-(2,6-difluoro-4-((1-(3-fluoropropyl)azetidin-3-yl)amino)phenyl)-5-fluoro-3-methyl-3,4-dihydro-1H-pyrido[3,4-b]indol-2(9H)-yl)-2-fluoro-2-methylpropan-1-ol], the EC50 worked out at 0.11 nM.
With `C[C@H](CF)CN1[C@H](c2c(F)cc(OCCN3CC(CF)C3)cc2F)c2[nH]c3ccccc3c2C[C@H]1C` [Example 270, (1R,3R)-1-(2,6-difluoro-4-(2-(3-(fluoromethyl)azetidin-1-yl)ethoxy)phenyl)-2-((S)-3-fluoro-2-methylpropyl)-3-methyl-2,3,4,9-tetrahydro-1H-pyrido[3,4-b]indole], the EC50 is 0.459 nM.
In the case of `C[C@H]1Cc2c([nH]c3ccc(F)cc23)[C@H](c2c(F)cc(NC3CN(CCCF)C3)cc2F)N1C[C@](C)(F)CO` [Example 432, (S)-3-((1S,3S)-1-(2,6-difluoro-4-((1-(3-fluoropropyl)azetidin-3-yl)amino)phenyl)-6-fluoro-3-methyl-1,3,4,9-tetrahydro-2H-pyrido[3,4-b]indol-2-yl)-2-fluoro-2-methylpropan-1-ol] it was 3.27 nM; in that of `C[C@@H]1Cc2c([nH]c3ccccc23)[C@@H](c2c(F)cc(OCCN3CC(CF)C3)cc2F)N1C(=O)CC1CC1` [Example 157, 2-cyclopropyl-1-[(1R,3R)-1-[2,6-difluoro-4-[2-[3-(fluoromethyl)azetidin-1-yl]ethoxy]phenyl]-3-methyl-1,3,4,9-tetrahydropyrido[3,4-b]indol-2-yl]ethanone], 5 nM.
As for `CC(C)(F)CN1[C@H](CF)Cc2c([nH]c3ccccc23)[C@H]1c1c(F)cc(OCCN2CC(CF)C2)cc1F` [Example 135, (1R,3S)-1-[2,6-difluoro-4-[2-[3-(fluoromethyl)azetidin-1-yl]ethoxy]phenyl]-3-(fluoromethyl)-2-(2-fluoro-2-methyl-propyl)-1,3,4,9-tetrahydropyrido[3,4-b]indole], the EC50 turned out to be 0.0973 nM.
As for `CC1(C)Cc2c([nH]c3ccccc23)[C@@H](c2c(F)cc(NC3CN(CCCF)C3)cc2F)N1CC(F)(F)CO` [Example 420, (R)-3-(1-(2,6-difluoro-4-((1-(3-fluoropropyl)azetidin-3-yl)amino)phenyl)-3,3-dimethyl-3,4-dihydro-1H-pyrido[3,4-b]indol-2(9H)-yl)-2,2-difluoropropan-1-ol], the EC50 was 0.117 nM.
Regarding `C[C@@H]1Cc2c([nH]c3ccccc23)[C@@H](c2c(F)cc(OC3CN(CCCF)C3)cc2F)N1CC(F)(F)F` [Example 277, (1R,3R)-1-[2,6-difluoro-4-[1-(3-fluoropropyl)azetidin-3-yl]oxy-phenyl]-3-methyl-2-(2,2,2-trifluoroethyl)-1,3,4,9-tetrahydropyrido[3,4-b]indole], the EC50 came out at 0.09 nM.
As to `CC[C@@H]1Cc2c([nH]c3ccccc23)[C@@H](c2c(F)cc(OCCN3CC(CF)C3)cc2F)N1CC(C)(C)F` [Example 171, (1R,3R)-1-(2,6-difluoro-4-(2-(3-(fluoromethyl)azetidin-1-yl)ethoxy)phenyl)-3-ethyl-2-(2-fluoro-2-methylpropyl)-2,3,4,9-tetrahydro-1H-pyrido[3,4-b]indole], the EC50 came out at 0.471 nM.
For `C[C@@H]1Cc2c([nH]c3ccccc23)[C@@H](c2c(F)cc(OC3CN(CC=C(F)F)C3)cc2F)N1CC(C)(C)F` [Example 317, (1R,3R)-1-[4-[1-(3,3-difluoroallyl)azetidin-3-yl]oxy-2,6-difluoro-phenyl]-2-(2-fluoro-2-methyl-propyl)-3-methyl-1,3,4,9-tetrahydropyrido[3,4-b]indole], the EC50 is 0.181 nM.
`C[C@H]1Cc2c([nH]c3ccc(F)cc23)[C@H](c2c(F)cc(OC3CN(CCCF)C3)cc2F)N1C[C@@](C)(F)CO` [Example 369, 3-((1S,3S)-1-(2,6-difluoro-4-((1-(3-fluoropropyl)azetidin-3-yl)oxy)phenyl)-6-fluoro-3-methyl-1,3,4,9-tetrahydro-2H-pyrido[3,4-b]indol-2-yl)-2-fluoro-2-methylpropan-1-ol]: the EC50 was determined as 24 nM.
With `C[C@@H]1Cc2c([nH]c3ccccc23)[C@@H](c2c(F)cc(OCCN3CC(CF)C3)cc2F)N1CC(C)(C)CO` [Example 287, 3-[(1R,3R)-1-[2,6-difluoro-4-[2-[3-(fluoromethyl)azetidin-1-yl]ethoxy]phenyl]-3-methyl-1,3,4,9-tetrahydropyrido[3,4-b]indol-2-yl]-2,2-dimethyl-propan-1-ol], the EC50 was found to be 1 nM.
In the case of `C[C@@H]1Cc2c([nH]c3ccccc23)[C@@H](c2c(F)cc(OC3CN([C@H]4C[C@@H](O)C4)C3)cc2F)N1CC(C)(C)F` [Example 334, (1S,3s)-3-(3-(3,5-difluoro-4-((1R,3R)-2-(2-fluoro-2-methylpropyl)-3-methyl-2,3,4,9-tetrahydro-1H-pyrido[3,4-b]indol-1-yl)phenoxy)azetidin-1-yl)cyclobutanol] it was 0.13 nM; in that of `C[C@@H]1Cc2c([nH]c3ccccc23)[C@@H](c2c(F)cc(OCCN3CC(CF)C3)cc2F)N1C(=O)C(C)(C)C` [Example 138, 1-[(1R,3R)-1-[2,6-difluoro-4-[2-[3-(fluoromethyl)azetidin-1-yl]ethoxy]phenyl]-3-methyl-1,3,4,9-tetrahydropyrido[3,4-b]indol-2-yl]-2,2-dimethyl-propan-1-one], 0.491 nM; in that of `CCCN1CC(Oc2cc(F)c([C@@H]3c4[nH]c5ccccc5c4C[C@@H](C)N3CC(C)C)c(F)c2)C1` [Example 200, (1R,3R)-1-[2,6-difluoro-4-(1-propylazetidin-3-yl)oxy-phenyl]-2-isobutyl-3-methyl-1,3,4,9-tetrahydropyrido[3,4-b]indole], 0.408 nM.
Regarding `C[C@@H]1Cc2c([nH]c3cccc(F)c23)[C@@H](c2c(F)cc(OCCN3CC(CF)C3)cc2F)N1CC(C)(C)F` [Example 247, (1R,3R)-1-(2,6-difluoro-4-(2-(3-(fluoromethyl)azetidin-1-yl)ethoxy)phenyl)-5-fluoro-2-(2-fluoro-2-methylpropyl)-3-methyl-2,3,4,9-tetrahydro-1H-pyrido[3,4-b]indole], the EC50 came out at 4.34 nM.
Take `C[C@H]1Cc2c([nH]c3cccc(F)c23)[C@H](c2c(F)cc(NC3CN(CCCF)C3)cc2F)N1CC(F)(F)CO` [Example 417, 3-((1S,3S)-1-(2,6-difluoro-4-((1-(3-fluoropropyl)azetidin-3-yl)amino)phenyl)-5-fluoro-3-methyl-3,4-dihydro-1H-pyrido[3,4-b]indol-2(9H)-yl)-2,2-difluoropropan-1-ol]: the EC50 was found to be 3.3 nM.
For the molecule `C[C@H]1Cc2c([nH]c3cc(F)ccc23)[C@H](c2c(F)cc(NC3CN(CCCF)C3)cc2F)N1C[C@](C)(F)CO` [Example 412, (S)-3-((1S,3S)-1-(2,6-difluoro-4-((1-(3-fluoropropyl)azetidin-3-yl)amino)phenyl)-7-fluoro-3-methyl-3,4-dihydro-1H-pyrido[3,4-b]indol-2(9H)-yl)-2-fluoro-2-methylpropan-1-ol], the EC50 was 1.3 nM.
Take `C[C@@H]1Cc2c([nH]c3ccc(F)cc23)[C@@H](c2c(F)cc(OC3CN(CCCF)C3)cc2F)N1CC(F)F` [Example 385, (1R,3R)-1-(2,6-difluoro-4-((1-(3-fluoropropyl)azetidin-3-yl)oxy)phenyl)-2-(2,2-difluoroethyl)-6-fluoro-3-methyl-2,3,4,9-tetrahydro-1H-pyrido[3,4-b]indole]: the EC50 is 0.074 nM.
In the case of `C[C@@H]1Cc2c([nH]c3ccccc23)[C@@H](c2c(F)cc(OC3CN(CC4CCCC4)C3)cc2F)N1CC(C)(C)F` [Example 165, (1R,3R)-1-[4-[1-(cyclopentylmethyl)azetidin-3-yl]oxy-2,6-difluoro-phenyl]-2-(2-fluoro-2-methyl-propyl)-3-methyl-1,3,4,9-tetrahydropyrido[3,4-b]indole] it was 2 nM.
Regarding `C[C@@H]1Cc2c([nH]c3ccccc23)[C@@H](c2ccc([C@H](O)C3CN(CCCF)C3)cc2)N1CC(C)(C)F` [Example 381, (R)-(4-((1R,3R)-2-(2-fluoro-2-methylpropyl)-3-methyl-2,3,4,9-tetrahydro-1H-pyrido [3,4-b]indol-1-yl)phenyl)(1-(3-fluoropropyl)azetidin-3-yl)methanol], the EC50 worked out at 0.605 nM.

As usually defined, the EC50 is the concentration that produces a half-maximal response.
